Test results reported in patent US20210186903A1, “TREATMENT FOR DEMYELINATING DISEASE” (CAMBRIDGE ENTERPRISE LIMITED, priority 2018, published 2021).
“Also recorded” adds a separate entry of the source.

Legend:
[1] = test system: young adult OPCs (2-3 months old); details: T3 40 ng/ml, 9cRA 50 nM, miconazole 1 μM, benztropine 1.5 μM, O4, CNPase, MBP markers
Experimental: Adult rats (2-27 months) were decapitated after lethal injection of phenobarbital into the tail vein. The brains were removed quickly and placed into ice-cold isolation medium (Tab. S3, alternatively Hibernate A (Brainbits). The telencephalon and cerebellum were dissected in isolation medium; meninges, and the olfactory bulb were mechanically removed and the brain tissue was mechanically minced into 1 mm3 pieces. The tissue pieces were spun down at 100 g for 1 min at RT and the tissue was washed in HBSS− (no Mg2+ and Ca2+, Gibco). Each half of the brain was mixed with 5 ml of dissociation solution (34 U/ml papain (Worthington), 20 μg/ml DNAse Type IV (Gibco) in isolation medium). The brain tissue was dissociated on a shaker (50 rpm) 494 for 40 min at 35° C. The digestion was stopped by addition of ice cold HBSS−. The tissue was centrifuged (200 g, 3 min, RT), the supernatant completely aspirated and the tissue resuspended in isolation medium supplemented with 2% B27 and 2 mM sodium-pyruvate (trituration solution). The tissue was allowed to sit in this solution for 5 min. To obtain a single cell suspension the tissue suspension was triturated 10 times using first a 5 ml serological pipette and subsequently three fire polished glass pipettes (opening diameter >0.5 mm). […]

aged OPCs [2] = test: Differentiation assay of cultured aged OPCs; type: cell-based, rat; details: for differentiation of aged OPCs: aged OPCs (20-24 months), T3 40 ng/ml, 9cRA 50 nM, miconazole 1 μM, benztropine 1.5 μM
Experimental: Adult rats (2-27 months) were decapitated after lethal injection of phenobarbital into the tail vein. The brains were removed quickly and placed into ice-cold isolation medium (Tab. S3, alternatively Hibernate A (Brainbits). The telencephalon and cerebellum were dissected in isolation medium; meninges, and the olfactory bulb were mechanically removed and the brain tissue was mechanically minced into 1 mm3 pieces. The tissue pieces were spun down at 100 g for 1 min at RT and the tissue was washed in HBSS− (no Mg2+ and Ca2+, Gibco). Each half of the brain was mixed with 5 ml of dissociation solution (34 U/ml papain (Worthington), 20 μg/ml DNAse Type IV (Gibco) in isolation medium). The brain tissue was dissociated on a shaker (50 rpm) 494 for 40 min at 35° C. The digestion was stopped by addition of ice cold HBSS−. The tissue was centrifuged (200 g, 3 min, RT), the supernatant completely aspirated and the tissue resuspended in isolation medium supplemented with 2% B27 and 2 mM sodium-pyruvate (trituration solution). The tissue was allowed to sit in this solution for 5 min. To obtain a single cell suspension the tissue suspension was triturated 10 times using first a 5 ml serological pipette and subsequently three fire polished glass pipettes (opening diameter >0.5 mm). After each trituration step the tissue suspension was allowed to sediment (approximately 1-2 min) and the supernatant (approximately 2 ml), containing the cells, was transferred into a fresh tube. After each round of trituration 2 ml of fresh trituration solution were added. To remove accidentally transferred undigested tissue bits, the collected supernatant was filtered through 70 μm cell strainers into tubes that contained 90% isotonic Percoll (GE Healthcare, 17-0891-01, in 10×PBS pH7.2 (Lifetech). The final volume was topped up with phenol-red free DMEM/F12 with HEPES (Gibco) and mixed to yield a homogenous suspension with a final Percoll concentration of 22.5%. The single cell suspension was separated from remaining debris particles by gradient density centrifugation (800 g, 20 min, RT, without break). The myelin debris and all layers without cells were discarded and the brain cell containing phase (last 2 ml) and cell pellet were resuspended in HBSS+ and combined in a fresh 15 ml tubes and centrifuged (300 g, 5 min, RT). The cell pellet was resuspended in red blood cell lysis buffer (Sigma, R7757) and incubated for 1 min at RT to remove red blood cells. 10 ml of HBSS+ were added to this cell suspension and spun down (300 g, 5 min, RT). The cell pellets were resuspended in 0.5 ml modified Milteny washing buffer (MWB, 2 mM EDTA, 2 mM Na-Pyruvate, 0.5% BSA in PBS, pH 7.3) supplemented with 10 ng/ml human recombinant insulin (Gibco). […]

aged OPCs [3] = test: qRT-PCR for OPC genes and Cdkn2a in cultured aged OPCs; type: cell-based, rat; details: aged OPCs (≥18 months)
Experimental: After isolation, OPCs were left to recover in OPC medium (60 μg/ml N-Acetyl cysteine (Sigma), 10 μg/ml human recombinant insulin (Gibco), 1 mM sodium pyruvate (Gibco), 50 μg/ml apo-transferrin (Sigma), 16.1 μg/ml putrescine (Sigma), 40 ng/ml sodium selenite (Sigma), 60 ng/ml progesterone (Sigma), 330 μg/ml bovine serum albumin (Sigma)) supplemented with b-FGF and PDGF (30 ng/ml each, Peprotech).
RNA was isolated from freshly purified OPCs or from cultured OPCs according to the Directzol RNA MicroPrep Kit (Zymo Research; R2061). All RNA samples were stored at −80° C. prior to further processing. cDNA was generated using the QuantiTect Reverse Transcription Kit's according to the instructions of the manufacturer (Qiagen; 205310). For RT-qPCR, primers (see Extended Data Tab. 5) were used at a concentration of […]. The efficiency of each primer was greater than […] as determined for each primer pair by serial dilutions of OPC cDNA. cDNA, primers, and the Syber Green Master Mix (Qiagen; 04141) were mixed as instructed by the manufacturer, and RT-qPCR and melting curve analysis were performed on Life Technologies' Quantstudio 6 Flex Real-Time PCR System. Fold changes in gene expression were calculated using the delta delta Ct method in Microsoft Excel. Statistical significance was determined using two-tailed unpaired t-tests assuming equal variances.

aged female SD rats = test: Remyelination after ethidium bromide lesion of caudal cerebellar peduncle in aged rats; type: in vivo, rat; details: for degree of remyelination versus control animals: aged rats fed ad libitum, metformin 300 mg/kg bodyweight in drinking water from 15 months, lesion at 18 months, assessed 50 days later, rank
Experimental: The animals were housed under standard laboratory conditions on a 12 h light/dark cycle with constant access to food and water. […] For metformin treatment 15 months old female SD rats that were fed ad libitum received metformin (Glucophage) in their drinking water (300 mg/kg bodyweight per day). Metformin treatment was interrupted for two days before and three days after surgery and then commenced to the end of the study (21 days after lesion induction). Fluid consumption was continuously monitored to adapt dosages. For studies involving demyelination, female Sprague Dawley rats (Harlan Laboratories) 18 months of age were used. The rats were anesthetized with buprenorphine (0.03 mg/kg, s.c.) 471 and 2.5% isoflurane. Demyelination was induced by stereotaxic injection of 4 μl of 0.01% ethidium bromide (EB) into the caudal cerebellar peduncles (CCPs), as previously described 28. EB was delivered at a rate of 1 μl/min. After EB delivery the injection needle remained in position for additional 4 min. To assess remyelination the rats were transcardially perfused with 4% glutaraldehyde and 0.4 mM CaCl2) in PBS. The cerebellum was cut in to transverse 1 mm thick sections. The tissue was fixed in 2% osmium-tetroxide at 4° C. overnight, dehydrated through a series of washes in ethanol and propylene-oxide and embedded in resin. From the resin blocks 1 μm thick sections were cut and stained with 1% toluidine blue.

aged OPCs [4] = test: Comet assay (DNA damage) of aged OPCs; type: cell-based, rat
Experimental: For comet assays of freshly isolated OPCs approximately 5000 OPCs were resuspended in 100 μl PBS and mixed with 300 μl 1% low melting point agarose (37° C.). Alternatively, when OPCs were cultured prior to the assay, the cells were detached using TrypLE 1× Select (Gibco) for 8 min at 37° C. The comet assay was then performed as described in reference 33. Briefly, OPCs were centrifuged at 300 g for 5 min. at room temperature and the cell pellet was resuspended with 100 μl PBS and then mixed with 300 μl molten low-melting point agarose pre-incubated at 37° C. The cell-agarose suspension was then applied gently onto polysine slides that were pre-treated with 1% agarose and allowed 590 to solidify at 4° C. The slides were submersed in alkaline cell lysis buffer (0.3M NaOH, 100 mM EDTA, 0.1% (w/v) N592 Lauroylsarcosine (Sigma, 61745), 1.2M NaCl in ddH2O) for 16 hours at 4° C. in the dark. […] Finally, electrophoresed and propidium iodide stained DNA was visualized using a Zeiss Axiovision Fluorescence microscope (Carl Zeiss), and 50-100 nuclei per animal were visually scored according to published protocols^34. Statistical significance was determined comparing respective damage categories between experimental groups by a two-tailed unpaired t-test. […]

| Compound | differentiation of young OPCs [1] | differentiation of aged OPCs (aged OPCs [2]) | expression of Cdkn2a (senescence marker) (aged OPCs [3]; 100 μM metformin during first 5 days of culture) | expression of Pdgfra and Ascl1 (OPC self-renewal genes) (aged OPCs [3]; 100 μM metformin during first 5 days of culture with growth factors) | degree of remyelination versus control animals (aged female SD rats) | degree of remyelination versus control animals (aged female SD rats; listed as Metformin) | degree of remyelination versus ADF animals (aged female SD rats; aged rats, metformin 300 mg/kg in drinking water for three months prior to lesion, compared with alternate day fasting) | DNA damage, comet assay (aged OPCs [4]; aged OPCs (≥18 months), 100 μM metformin during first 5 days of culture) | hallmarks of aging of aged OPCs (aged OPCs [4]; aged OPCs, DNA damage among the hallmarks) | proportion of MBP expressing oligodendrocytes with highly arborized morphology (aged OPCs [2]; aged OPCs exposed to metformin, in the presence of pro-differentiation factors) | differentiation of aged OPCs (differentiation potential), agent added before differentiation (aged OPCs [2]; aged OPCs, agent added prior to pro-differentiation compounds / onset of differentiation, Olig2+MBP+ cells) |
| --- | --- | --- | --- | --- | --- | --- | --- | --- | --- | --- | --- |
| CC1=C(/C=C/C(C)=C\C=C\C(C)=C\C(=O)O)C(C)(C)CCC1 [9-cis-retinoic acid] | enhanced differentiation in young | but not aged OPCs | – | – | – | – | – | – | – | – | – |
| CN1[C@@H]2CC[C@H]1C[C@@H](OC(c1ccccc1)c1ccccc1)C2 [benztropine] | enhanced differentiation in young | but not aged OPCs | – | – | – | – | – | – | – | – | – |
| CN(C)C(=N)NC(=N)N [metformin, N,N-dimethylbiguanide] | – | – | expressed significantly less Cdkn2a | increased their expression of Pdgfra and Ascl1 | enhances remyelination in aged rats | significantly higher compared to control animals | comparable to animals undergoing ADF | less DNA damage | ameliorates hallmarks of ageing | significant increase | restores the ability of aged OPCs to differentiate; also recorded: enhanced differentiation of aged OPCs |
